From article PMC5075052, “Modulation of the Substitution Pattern of 5-Aryl-2-Aminoimidazoles Allows Fine-Tuning of Their Antibiofilm Activity Spectrum and Toxicity” (Antimicrobial Agents and Chemotherapy, 2016)
Like-named read-outs stand apart in the source and are kept apart here.

Legend:
CsgD = settings: S. Typhimurium, first 24 h of biofilm formation; cited from earlier work
S. aureus ATCC 6538 = assay: Monospecies bacterial biofilm inhibition, static peg assay (Calgary device, crystal violet; planktonic OD600); type: cell-based, Staphylococcus aureus
Procedure: (§1) A static peg assay, described previously ([27], [74]), was used for bacterial biofilm formation. The Calgary biofilm device consists of a platform carrying 96 polystyrene pegs (Nunc no. 445497) that fits as a microtiter plate lid, with 1 peg hanging into each microtiter plate well (Nunc no. 269789). Twofold serial dilutions of the compounds (dissolved in 100% dimethyl sulfoxide [DMSO] or ethanol) in 100 μl liquid broth (TSB diluted 1/20) per well were prepared in the microtiter plate in duplicate or triplicate with a maximum concentration of 1,600 μM and a minimum concentration of 0.8 μM. Subsequently, an overnight culture of S. Typhimurium ATCC 14028, P. aeruginosa PA14, E. coli TG1, S. epidermidis, S. aureus SH1000, or S. aureus ATCC 6538 (all grown in LB) was diluted 1:100 into TSB diluted 1/20 (or TSB for S. epidermidis, S. aureus SH1000, and S. aureus ATCC 6538), whereas overnight cultures of S. liquefaciens MG44 and B. cepacia LMG1222T were diluted 1:50 into TSB diluted 1/20. P. gingivalis ATCC 33277 cultures were diluted in TSB diluted 1/20 to have a final concentration of 1 × 10^8 cells/ml. Next, 100 μl was added to each well of the microtiter plate, resulting in a total volume of 200 μl medium per well (final concentration range of compounds, 800 μM [2% DMSO or ethanol] to 0.4 μM [0.001% DMSO or ethanol]). In the next step, the pegged lid was placed on the microtiter plate and the plate was incubated for 24 h or 48 h at 25°C or 37°C without shaking. At 37°C, the plates were placed in a sealed container with wet towels on the bottom to prevent evaporation of the growth medium. Biofilms of P. gingivalis ATCC 33277 were grown anaerobically at 37°C for 72 h. During this incubation period, biofilms were formed on the surface of the pegs. After incubation, the optical density at 600 nm (OD600) for the planktonic cells in the microtiter plate was measured using a Synergy MX multimode reader (BioTek, Winooski, VT). This gives a first indication of the effect of the compounds on planktonic growth. For quantification of biofilm formation, the pegs were washed once in 200 μl PBS. The remaining attached bacteria were stained for 30 min with 200 μl 0.1% (wt/vol) crystal violet in an isopropanol-methanol-PBS solution (1:1:18, vol/vol). Excess stain was rinsed off by placing the pegs in a 96-well plate filled with 200 μl distilled water per well. After air drying of the pegs (30 min), the dye bound to the adherent biofilm was extracted with 30% glacial acetic acid (200 μl per well of a 96-well plate). The optical density at 570 nm (OD570) of each well was measured using a Synergy MX multimode reader (BioTek, Winooski, VT). The concentration of each compound needed to inhibit biofilm formation by 50% (BIC50) and the concentration of each compound needed to inhibit planktonic growth by 50% (IC50) were determined from the concentration gradient by using nonlinear curve fitting (GraphPad Prism software, version 5; GraphPad Software, Inc., La Jolla, CA). In the same assay, the effect on planktonic growth was evaluated. The activity was considered biofilm specific if the BIC50 was at least two times lower than the IC50. Data represent the means from at least 3 technical repeats with the corresponding 95% confidence intervals (provided in the supplemental material).

C. albicans SC5314 = assay: Inhibition of C. albicans biofilms, CellTiter-Blue quantification; type: cell-based, Candida albicans; settings: C. albicans SC5314, 37°C, CTB method, read-out: BIC50 (μM) for C. albicans SC5314 (37°C)
Procedure: The potential of the compounds to prevent C. albicans SC5314 biofilm formation was assessed using the CellTiter-Blue (CTB) quantification method ([75]). […]. Twofold serial dilutions of the compounds (dissolved in 100% DMSO or ethanol) in 100 μl RPMI 1640 medium per well were prepared in a round-bottom polystyrene 96-well microtiter plate (TPP; Trasadingen, Switzerland) in duplicate or triplicate with a maximum concentration of 1,600 μM and a minimum concentration of 0.8 μM. One hundred microliters of the cell suspension was added to each well of the microtiter plate, resulting in a total volume of 200 μl medium per well (final concentration range of compounds, 800 μM [2% DMSO or ethanol] to 0.4 μM [0.001% DMSO or ethanol]). After 16 h of static incubation at 37°C, the biofilms were washed and quantified by the CTB method as described previously ([73]).

P. aeruginosa PA14 = assay: Monospecies bacterial biofilm inhibition, static peg assay; type: cell-based, Pseudomonas aeruginosa
Procedure: as §1

E. coli TG1 = assay: as above; type: cell-based, Escherichia coli
Procedure: as §1

S. epidermidis = assay: as above; type: cell-based, Staphylococcus epidermidis; settings: 37°C
Procedure: as §1

[1] = system: S. Typhimurium ATCC 14028; assay: as above; type: cell-based, Salmonella enterica serovar Typhimurium; settings: S. Typhimurium ATCC 14028, 25°C
Procedure: as §1

S. aureus SH1000 [2] = assay: as above; type: cell-based, Staphylococcus aureus
Procedure: as §1

B. cepacia LMG1222T = assay: as above; type: cell-based, Burkholderia cepacia; settings: 25°C
Procedure: as §1

S. liquefaciens MG44 = assay: as above; type: cell-based, Serratia liquefaciens; settings: S. liquefaciens MG44, 25°C
Procedure: as §1

P. aeruginosa PAO1 = settings: cited from earlier work
S. aureus SH1000 [3] = system: S. aureus SH1000; design: method as in PMID 23208606, PMID 19959627; settings: cited from earlier work
E. coli F18 = system: E. coli F18; design: method as in PMID 23208606, PMID 19959627; settings: cited from earlier work
E. coli VR50 = system: E. coli VR50; design: method as in PMID 23208606, PMID 19959627; settings: cited from earlier work
[4] = Staphylococcus aureus, ATCC6538, read-out: BIC50 (concentration needed to inhibit biofilm formation by 50%), S. aureus ATCC 6538, 37°C
[5] = Staphylococcus aureus, ATCC6538, read-out: IC50 (concentration needed to inhibit planktonic growth by 50%), S. aureus ATCC 6538, 37°C, planktonic OD600
[6] = Pseudomonas aeruginosa, PA14, P. aeruginosa PA14, 25°C, read-out: BIC50
[7] = Pseudomonas aeruginosa, PA14, P. aeruginosa PA14, 25°C, read-out: IC50 (planktonic growth)
[8] = Escherichia coli, TG1, E. coli TG1, 25°C, read-out: BIC50
[9] = Escherichia coli, TG1, E. coli TG1, 25°C, read-out: IC50 (planktonic growth)
[10] = Staphylococcus epidermidis, read-out: BIC50
[11] = Staphylococcus epidermidis, read-out: IC50 (planktonic growth)
[12] = Salmonella enterica, read-out: BIC50
[13] = Salmonella enterica, read-out: IC50 (planktonic growth)
[14] = Staphylococcus aureus, SH1000, S. aureus SH1000, 37°C, read-out: BIC50
[15] = Staphylococcus aureus, SH1000, S. aureus SH1000, 37°C, read-out: IC50 (planktonic growth)
[16] = Burkholderia cepacia, read-out: BIC50
[17] = Burkholderia cepacia, read-out: IC50 (planktonic growth)
[18] = Serratia liquefaciens, read-out: BIC50
[19] = Serratia liquefaciens, read-out: IC50 (planktonic growth)
[20] = read-out: IC50 (planktonic growth)

Row | Compound | IC50 (S. aureus ATCC 6538; [4]) [µM] | IC50 (S. aureus ATCC 6538; [5]) [µM] | IC50 (C. albicans SC5314; Candida albicans) [µM] | IC50 (P. aeruginosa PA14; [6]) [µM] | IC50 (P. aeruginosa PA14; [7]) [µM] | IC50 (E. coli TG1; [8]) [µM] | IC50 (E. coli TG1; [9]) [µM] | IC50 (S. epidermidis; [10]) [µM] | IC50 (S. epidermidis; [11]) [µM] | IC50 [1, 12] [µM] | IC50 [1, 13] [µM] | IC50 (S. aureus SH1000 [2]; [14]) [µM] | IC50 (S. aureus SH1000 [2]; [15]) [µM] | IC50 (B. cepacia LMG1222T; [16]) [µM] | IC50 (B. cepacia LMG1222T; [17]) [µM] | IC50 (S. liquefaciens MG44; [18]) [µM] | IC50 (S. liquefaciens MG44; [19]) [µM] | concentration at which biofilm formation is inhibited (P. aeruginosa PAO1) [µM] | also measured
1 | Nc1ncc(-c2ccccc2)[nH]1 [5-phenyl-2-aminoimidazole] | – | – | – | – | – | – | – | – | – | – | – | – | – | – | – | – | – | – | effect on transcription of CsgD and regulon genes csgB and adrA (CsgD): reduces the transcription of CsgD
2 | O=c1cc(-c2ccccc2)oc2cc(O)c(O)c(O)c12 [Baicalein, reference compound] | > 400 | > 400 | 273 | > 400 | > 400 | 1.2 | ~23.5 | > 400 | > 400 | > 400 | > 400 | 77.5 | > 400 | 48.9 | > 400 | > 400 | > 400 | 20 | –
3 | O=C(N/N=C/c1ccc([N+](=O)[O-])o1)c1ccc(O)cc1 [Nifuroxazide, reference compound] | 65.5 | 125 | > 400 | > 400 | > 400 | 12.2 | > 400 | 46.9 | ~43.4 | > 400 | > 400 | > 400 | > 400 | > 400 | > 400 | > 400 | > 400 | 70 | –
4 | Tannic acid [reference compound] | – | – | – | – | – | – | – | – | – | – | – | – | – | – | – | – | – | – | IC50 (S. aureus ATCC 6538; S. aureus ATCC 6538, 37°C, planktonic OD600, read-out: IC50 (concentration needed to inhibit planktonic growth by 50%)): > 400 µM; IC50 (S. aureus ATCC 6538; S. aureus ATCC 6538, 37°C, read-out: BIC50 (concentration needed to inhibit biofilm formation by 50%)): ~300 µM; IC50 (C. albicans SC5314): > 400 µM; IC50 (P. aeruginosa PA14; P. aeruginosa PA14, 25°C, read-out: BIC50): 27.7 µM; IC50 (P. aeruginosa PA14; P. aeruginosa PA14, 25°C, read-out: IC50 (planktonic growth)): > 400 µM; IC50 (E. coli TG1; E. coli TG1, 25°C, read-out: BIC50): ~195 µM; IC50 (E. coli TG1; E. coli TG1, 25°C, read-out: IC50 (planktonic growth)): > 400 µM; IC50 (S. epidermidis; read-out: BIC50): > 400 µM; IC50 (S. epidermidis; [20]): > 400 µM; IC50 ([1]; read-out: BIC50): 18.8 µM; IC50 [1, 20]: > 400 µM; IC50 (S. aureus SH1000 [2]; S. aureus SH1000, 37°C, read-out: BIC50): 115 µM; IC50 (S. aureus SH1000 [2]; S. aureus SH1000, 37°C, read-out: IC50 (planktonic growth)): > 400 µM; IC50 (B. cepacia LMG1222T; read-out: BIC50): 1.9 µM; IC50 (B. cepacia LMG1222T; [20]): > 400 µM; concentration at which biofilm formation is inhibited (S. aureus SH1000 [3]): 20 µM; concentration at which biofilm formation is inhibited (E. coli F18): 20 µM; IC50 (S. liquefaciens MG44; read-out: BIC50): > 400 µM; IC50 (S. liquefaciens MG44; [20]): > 400 µM; concentration at which biofilm formation is inhibited (E. coli VR50): 20 µM
